Each block holds one molecule with its values, some of them ahead of it. Peptide text beside a SMILES is read from it.
Legend:
contact system [1] = test: Inhibition by synthetic peptides of contact system activation in EDTA-plasma induced by DS500; format: biochemical, human; conditions: Activator DS500
Experimental: (§1) • Figure 1: Effects of mAb KOK5 on activation of purified FXII. • A: Activation by kallikrein: Twenty-five µl of prewarmed FXII (125 nM), 25 µl of serial dilutions of mAb KOK5, 25 µl of prewarmed kallikrein (25 nM) and 25 µl of buffer yielding final concentrations of 50 mM Tris-HCl, 150 mM NaCl, 0.1% (wt/vol) Tween-20, pH 7.8, were incubated for 30 min at 37°C. Thereafter, 50 µl of assay mixture containing the chromogenic substrate S-2302 were added and the increase in absorbance at 405 nm at 37°C was recorded. Results are expressed as percentage of the total amount of FXII present in the mixture (as determined by limited digestion with 10 nM trypsin), and represent the mean ± SE of two experiments. […] Thereafter, 50 µl of assay mixture containing S-2302 were added and the increase in absorbance at 405 nm at 37°C was recorded. […] The reaction was stopped by adding 120 µl of stop buffer (PBS, 0.1 mg/ml SBTI, Polybrene 0.05% wt/vol) and the amount of FXIIa-C1-inhibitor (+---+), kallikrein-C1-inhibitor (o- -o) and factor XIa-C1-inhibitor (●- -●) complexes generated was measured. Results, expressed as percentage of the maximum amount of complexes generated in pooled plasma by DS500 (50 µg/ml), represent the mean values ± S.D. from three different experiments. • Figure 3. […] In addition 50 µl of purified FXII (500 nM) were first incubated for 2 min with kaolin and then with serial dilutions of mAb KOK5 for 15 min (+---+); whereafter the residual FXII clotting activity was measured. Results are expressed as percentage of inhibition compared to the clotting activity measured in the absence of mAbs and are the mean ± SE of two experiments. • Figure 4. […] After 10 min at room temperature tubes were centrifuged for 2 min at 10,000 g and the pellets were counted for radioactivity. Binding was expressed as the percentage of the total counts that were found in the pellet in the absence of mAbs. […] Bound FXII was detected by subsequent incubation with ^125I-anti-FXII antibodies. Results are expressed as percentage of the ^125I-anti-FXII added and represent the means of two experiments. • Figure 6. […]

contact system [2] = test: Inhibition by synthetic peptides of contact system activation in EDTA-plasma induced by kaolin; format: biochemical, human; conditions: Activator kaolin
Experimental: as §1, with “measured.” for “measured. Results, expressed as percentage of the maximum amount of complexes generated in pooled plasma by DS500 (50 µg/ml), represent the mean values ± S.D. from three different experiments. • Figure 3.”

FXII = test: Binding of 125I-FXII to kaolin; set-up: species or system human
Experimental: • Figure 1: Effects of mAb KOK5 on activation of purified FXII. • A: Activation by kallikrein: Twenty-five µl of prewarmed FXII (125 nM), 25 µl of serial dilutions of mAb KOK5, 25 µl of prewarmed kallikrein (25 nM) and 25 µl of buffer yielding final concentrations of 50 mM Tris-HCl, 150 mM NaCl, 0.1% (wt/vol) Tween-20, pH 7.8, were incubated for 30 min at 37°C. Thereafter, 50 µl of assay mixture containing the chromogenic substrate S-2302 were added and the increase in absorbance at 405 nm at 37°C was recorded. Results are expressed as percentage of the total amount of FXII present in the mixture (as determined by limited digestion with 10 nM trypsin), and represent the mean ± SE of two experiments. […] Thereafter, 50 µl of assay mixture containing S-2302 were added and the increase in absorbance at 405 nm at 37°C was recorded. […] The reaction was stopped by adding 120 µl of stop buffer (PBS, 0.1 mg/ml SBTI, Polybrene 0.05% wt/vol) and the amount of FXIIa-C1-inhibitor (+---+), kallikrein-C1-inhibitor (o- -o) and factor XIa-C1-inhibitor (●- -●) complexes generated was measured. Results, expressed as percentage of the maximum amount of complexes generated in pooled plasma by DS500 (50 µg/ml), represent the mean values ± S.D. from three different experiments. • Figure 3. […] Binding was expressed as the percentage of the total counts that were found in the pellet in the absence of mAbs. […]

mAb KOK5 = test: cell-based or functional assay
[3] = read-out: FXIIa-C1inh (IC50 values)
[4] = read-out: FXIa-C1inh (IC50 values)
[5] = read-out: kal-C1inh (IC50 values)

IC50 (contact system [1]; [3]): 3.15 ± 0.85 mM
IC50 (contact system [1]; [4]): 6.75 ± 1.25 mM
IC50 (contact system [1]; [5]): 5.25 ± 2.7 mM
IC50 (contact system [2]; [3]): 7 ± 1.4 mM
IC50 (contact system [2]; [4]): 7.5 ± 0.5 mM
IC50 (contact system [2]; [5]): 6 ± 2.1 mM
IC50 relative to that of FXII itself (times higher) (FXII; inhibition of binding of 125I-FXII to kaolin): 10,000 times
IC50 (FXII; synthetic peptides, read-out: IC50, inhibition of binding of 125I-FXII to kaolin): 0.9 mM
Molecule: C[C@@H](O)[C@H](NC(=O)[C@H](CS)NC(=O)[C@H](CCC(N)=O)NC(=O)[C@H](Cc1c[nH]cn1)NC(=O)[C@@H](N)CO)C(=O)N[C@@H](Cc1c[nH]cn1)C(=O)N[C@@H](CCCNC(=N)N)C(=O)N[C@@H](CCCCN)C(=O)N[C@@H](CS)C(=O)N[C@@H](Cc1ccc(O)cc1)C(=O)O [SHQCTHRKCY] (H-SHQCTHRKCY-OH)

inhibition of FXII activation by kallikrein in the presence of mAb KOK5 (IC50) (mAb KOK5): 0.05 mM
B1: synthetic peptide … (peptide)
peptide: AEGEFRFQTPQWE

From patent EP0982397A1, “Inhibition of contact system activation” (Stichting Sanquin Bloedvoorziening, priority 1998, dated 2000)
